Data taken from PubChem BioAssay (NCI).
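Step 1: Grow cells in 96-well plates. Step 2: Expose to compound for 48 hours at 5 concentrations. Step 3: Interpolate endpoints linearly; if unreached, use highest concentration. TGI: concentration producing complete growth inhibition.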

Assays:
Experiment in all cases: NCI tumour cell line growth inhibition, 48 h
[1] = test system: OVCAR-8 ovarian
[2] = test system: TK-10 renal
[3] = test system: DLD-1 colon
[4] = test system: MALME-3M melanoma
[5] = test system: COLO 205 colon
[6] = test system: OVCAR-4 ovarian
[7] = test system: SNB-78 CNS
[8] = test system: NCI-H226 lung
[9] = test system: SK-MEL-28 melanoma
[10] = test system: HL-60(TB) leukemia
[11] = test system: NCI-H522 lung
[12] = test system: HT29 colon
[13] = test system: NCI-H23 lung
[14] = test system: SN12C renal
[15] = test system: SNB-75 CNS
[16] = test system: M14 melanoma
[17] = test system: UACC-62 melanoma
[18] = test system: M19-MEL melanoma
[19] = test system: KM12 colon
[20] = test system: MOLT-4 leukemia
[21] = test system: RXF-631 renal
[22] = test system: SK-MEL-5 melanoma
[23] = test system: DMS 273 small cell lung
[24] = test system: CAKI-1 renal
[25] = test system: UO-31 renal
[26] = test system: SF-539 CNS
[27] = test system: LOX IMVI melanoma
[28] = test system: KM20L2 colon
[29] = test system: DMS 114 small cell lung
[30] = test system: HOP-62 NSCLC
[31] = test system: XF 498 CNS
[32] = test system: UACC-257 melanoma
[33] = test system: 786-0 renal
[34] = test system: SF-295 CNS
[35] = test system: SW-620 colon
[36] = test system: SK-MEL-2 melanoma
[37] = test system: HOP-92 NSCLC
[38] = test system: NCI-H460 lung
[39] = test system: LXFL 529 NSCLC
[40] = test system: A549 NSCLC
[41] = test system: EKVX NSCLC
[42] = test system: RXF 393 renal
[43] = test system: HOP-18 NSCLC
[44] = test system: HCT-116 colon
[45] = test system: SF-268 CNS
[46] = test system: HCT-15 colon
[47] = test system: IGROV1 ovarian
[48] = test system: ACHN renal
[49] = test system: CCRF-CEM leukemia
[50] = test system: A498 renal
[51] = test system: OVCAR-3 ovarian
[52] = test system: SK-OV-3 ovarian
[53] = test system: OVCAR-5 ovarian
[54] = test system: U251 CNS
[55] = test system: RPMI-8226 leukemia
[56] = test system: SNB-19 CNS
[57] = test system: K-562 leukemia
[58] = test system: SR leukemia
[59] = test system: HCC-2998 colon
[60] = test system: SN12K1 renal
[61] = test system: P388 leukemia
[62] = test system: P388/ADR leukemia
[63] = test system: NCI/ADR-RES ovarian
[64] = test system: MCF7 breast

c1ccc2c(CNCCCN3CCN(CCCNCc4cccc5ccccc45)CC3)cccc2c1
TGI [1]: 4.03 µM
TGI [2]: 2.95 µM
TGI [3]: 3.69 µM
TGI [4]: 3.56 µM
TGI [5]: 3.85 µM
TGI [6]: 5 µM
TGI [7]: 4.59 µM
TGI [8]: 7.75 µM
TGI [9]: 3.06 µM
TGI [10]: 3.45 µM
TGI [11]: 2.99 µM
TGI [12]: 3.2 µM
TGI [13]: 23.6 µM
TGI [14]: 13.5 µM
TGI [15]: 3.15 µM
TGI [16]: 2.42 µM
TGI [17]: 3.26 µM
TGI [18]: 3.37 µM
TGI [19]: 3.7 µM
TGI [20]: 2.92 µM
TGI [21]: 2.41 µM
TGI [22]: 3.14 µM
TGI [23]: 3.43 µM
TGI [24]: 4.02 µM
TGI [25]: 3.22 µM
TGI [26]: 3.01 µM
TGI [27]: 2.67 µM
TGI [28]: 3.18 µM
TGI [29]: 3.46 µM
TGI [30]: 34.4 µM
TGI [31]: 3.17 µM
TGI [32]: 3.34 µM
TGI [33]: 4.18 µM
TGI [34]: 3.28 µM
TGI [35]: 3.25 µM
TGI [36]: 3.02 µM
TGI [37]: 4.65 µM
TGI [38]: 2.81 µM
TGI [39]: 3.17 µM
TGI [40]: 4.25 µM
TGI [41]: 13.1 µM
TGI [42]: 2.4 µM
TGI [43]: 18.7 µM
TGI [44]: 2.83 µM
TGI [45]: 6.11 µM
TGI [46]: 3.47 µM
TGI [47]: 10.1 µM
TGI [48]: 6.85 µM
TGI [49]: 3 µM
TGI [50]: 22.9 µM
TGI [51]: 9.53 µM
TGI [52]: 5.22 µM
TGI [53]: 5.32 µM
TGI [54]: 3.16 µM

CCC(CO)COC(=O)/C=C/C(=O)OCC(CC)CO (centres undefined)
TGI [1]: > 100 µM
TGI [55]: > 100 µM
TGI [2]: > 100 µM
TGI [3]: > 100 µM
TGI [56]: > 100 µM
TGI [4]: > 100 µM
TGI [5]: > 100 µM
TGI [6]: > 100 µM
TGI [7]: > 100 µM
TGI [8]: > 100 µM
TGI [9]: > 100 µM
TGI [10]: 45.5 µM
TGI [11]: > 100 µM
TGI [12]: > 100 µM
TGI [13]: > 100 µM
TGI [14]: > 100 µM
TGI [57]: > 100 µM
TGI [15]: > 100 µM
TGI [16]: > 100 µM
TGI [17]: > 100 µM
TGI [18]: > 100 µM
TGI [58]: > 95.6 µM
TGI [19]: > 100 µM
TGI [20]: > 100 µM
TGI [21]: > 100 µM
TGI [22]: > 100 µM
TGI [23]: > 100 µM
TGI [24]: > 100 µM
TGI [25]: > 100 µM
TGI [26]: > 100 µM
TGI [27]: > 100 µM
TGI [28]: > 100 µM
TGI [29]: > 100 µM
TGI [30]: > 100 µM
TGI [31]: > 100 µM
TGI [32]: > 100 µM
TGI [33]: > 100 µM
TGI [34]: > 100 µM
TGI [35]: > 100 µM
TGI [36]: > 100 µM
TGI [37]: > 100 µM
TGI [38]: > 100 µM
TGI [39]: > 100 µM
TGI [40]: > 100 µM
TGI [41]: > 100 µM
TGI [42]: > 100 µM
TGI [43]: > 100 µM
TGI [44]: > 100 µM
TGI [45]: > 100 µM
TGI [46]: > 100 µM
TGI [47]: > 100 µM
TGI [48]: > 100 µM
TGI [49]: > 82.6 µM
TGI [50]: > 100 µM
TGI [51]: > 100 µM
TGI [52]: > 100 µM
TGI [53]: > 100 µM
TGI [59]: > 100 µM
TGI [54]: > 100 µM

O=C1CNC(=O)N1
TGI [1]: > 1120 µM
TGI [55]: > 1120 µM
TGI [60]: > 1120 µM
TGI [61]: > 520 µM
TGI [3]: > 1120 µM
TGI [56]: > 1120 µM
TGI [4]: > 1120 µM
TGI [5]: > 1120 µM
TGI [6]: > 1120 µM
TGI [7]: > 1120 µM
TGI [8]: > 1120 µM
TGI [62]: > 630 µM
TGI [9]: > 1120 µM
TGI [10]: > 1120 µM
TGI [11]: > 1120 µM
TGI [12]: > 1120 µM
TGI [13]: > 1120 µM
TGI [14]: > 1120 µM
TGI [57]: > 630 µM
TGI [15]: > 1120 µM
TGI [63]: > 1120 µM
TGI [17]: > 1120 µM
TGI [18]: > 1120 µM
TGI [19]: > 1120 µM
TGI [20]: > 1120 µM
TGI [22]: > 1120 µM
TGI [23]: > 1120 µM
TGI [24]: > 1120 µM
TGI [25]: > 1120 µM
TGI [26]: > 1120 µM
TGI [27]: > 1120 µM
TGI [64]: > 1120 µM
TGI [28]: > 1120 µM
TGI [29]: > 1120 µM
TGI [30]: > 1120 µM
TGI [31]: > 11.2 µM
TGI [32]: > 1120 µM
TGI [34]: > 1120 µM
TGI [35]: > 1120 µM
TGI [36]: > 1120 µM
TGI [37]: > 11.2 µM
TGI [38]: > 1120 µM
TGI [40]: > 1120 µM
TGI [41]: > 1120 µM
TGI [42]: > 1120 µM
TGI [43]: > 1120 µM
TGI [44]: > 1120 µM
TGI [45]: > 1120 µM
TGI [46]: > 1120 µM
TGI [47]: > 1120 µM
TGI [49]: > 954 µM
TGI [50]: > 1120 µM
TGI [51]: > 1120 µM
TGI [52]: > 1120 µM
TGI [53]: > 1120 µM
TGI [59]: > 1120 µM
TGI [54]: > 1120 µM

COc1cc(/C=C(\C)c2ccc3c(c2)OCO3)cc(OC)c1OC
TGI [1]: > 100 µM
TGI [2]: > 100 µM
TGI [3]: > 100 µM
TGI [56]: > 100 µM
TGI [4]: 62.1 µM
TGI [5]: 39.7 µM
TGI [6]: > 100 µM
TGI [7]: > 100 µM
TGI [8]: > 100 µM
TGI [9]: > 100 µM
TGI [10]: > 100 µM
TGI [11]: 69 µM
TGI [12]: > 100 µM
TGI [13]: > 100 µM
TGI [14]: > 100 µM
TGI [57]: > 100 µM
TGI [15]: 37.8 µM
TGI [16]: > 100 µM
TGI [18]: > 100 µM
TGI [58]: 59.7 µM
TGI [19]: > 100 µM
TGI [20]: 75.9 µM
TGI [21]: > 100 µM
TGI [22]: 24.2 µM
TGI [23]: 96.3 µM
TGI [25]: 79.2 µM
TGI [26]: 58.7 µM
TGI [27]: > 100 µM
TGI [28]: > 100 µM
TGI [29]: 87 µM
TGI [30]: > 100 µM
TGI [32]: > 100 µM
TGI [33]: > 100 µM
TGI [34]: > 100 µM
TGI [35]: 95 µM
TGI [36]: 63.6 µM
TGI [38]: > 100 µM
TGI [39]: 96 µM
TGI [40]: > 100 µM
TGI [41]: 51.8 µM
TGI [42]: 99.5 µM
TGI [43]: > 100 µM
TGI [44]: > 100 µM
TGI [45]: > 100 µM
TGI [46]: > 100 µM
TGI [47]: > 100 µM
TGI [48]: 49.3 µM
TGI [49]: > 100 µM
TGI [50]: 83.5 µM
TGI [51]: > 100 µM
TGI [52]: 75.1 µM
TGI [53]: > 100 µM
TGI [59]: > 100 µM
TGI [54]: > 100 µM
